Test results taken from patent US20190350930A1, “COMPOSITION FOR CONTROLLING GASTROESOPHAGEAL REFLUX DISEASES” (bitop AG, priority 2016, published 2019).

Tested on: mucus-forming epithelial cells TR146
Experiment: in vitro cell culture model: TR146 cells damaged with acidic HCl/pepsin solution, then incubated with ectoine; cell count by neutral red cytotoxicity assay
Format: cell-based
Settings: FIG. 1
Protocol: The cells were treated with acid solutions containing the digestive enzyme pepsin and following this treated with ectoine. TR146 cells were added to a microplate having 96 wells, with the cells being allowed to grow until the surface was almost completely covered. The cells were then treated for 10 min. with a diluted acidic HCl solution together with pepsin in a cell culture medium. The concentration of pepsin was 2 U/ml. Following this, the cells were washed with PBS (phosphate buffered saline) and incubated overnight either with ectoine or for control purposes with pure solvent. After incubation, a cell count determination was carried out using a […] for which a cyanine-based nucleic acid dye was employed. The assay is based on the fact that the plasma membrane of damaged or dead cells becomes permeable to the dye and the dye binds to the DNA of the cell, which is associated with a corresponding increase in fluorescence. For […] control, cells were treated with 0.1% sodium dodecyl sulfate (SDS) solution as denaturing agent. Other cells (full medium) were not treated with acid/pepsin.

CC1=NCC[C@@H](C(=O)O)N1 (stereo in doubt) [ectoine, 2-methyl-1,4,5,6-tetrahydropyrimidine-4-carboxylic acid]
effect with respect to the regeneration of the cells (50 mM ectoine, overnight incubation after 10 min acidic HCl solution with pepsin 2 U/ml): excellent effect
cell viability (cells treated with ectoine (50 mM) after acid/pepsin, compared with full-medium cells not treated with acid/pepsin): comparable to that of cells that were not subjected to a treatment with an acidic pepsin solution
